Assay results taken from the supplement of paper PMC5908809.

Columns and labels:
[1] = test system: NK-92 (IL-2 2.5 ng/mL); assay: drug sensitivity score (DSS) (DSS units); higher = more sensitive; extreme values may be limits of the assay; settings: 72 h
[2] = test system: normal primary NK cells, pool 1 (3 donors), resting (IL-2 0 ng/mL); assay: as above; settings: 72 h
[3] = test system: KAI3 (IL-2 2.5 ng/mL); assay: as above; settings: 72 h
[4] = test system: normal primary NK cells, pool 2 (3 donors) (IL-2 2.5 ng/mL); assay: as above; settings: 72 h
[5] = test system: NKL (IL-2 2.5 ng/mL); assay: as above; settings: 72 h
[6] = test system: normal primary NK cells, pool 1 (3 donors) (IL-2 2.5 ng/mL); assay: as above; settings: 72 h
[7] = test system: DERL-7 (IL-2 2.5 ng/mL); assay: as above; settings: 72 h
[8] = test system: KHYG-1 (IL-2 2.5 ng/mL); assay: as above; settings: 72 h
[9] = test system: YT (IL-2 2.5 ng/mL); assay: as above; settings: 72 h
[10] = test system: normal primary NK cells, pool 3 (3 donors) (IL-2 2.5 ng/mL); assay: as above; settings: 72 h
[11] = test system: NK-YS (IL-2 2.5 ng/mL); assay: as above; settings: 72 h
[12] = test system: SNK-6 (IL-2 2.5 ng/mL); assay: as above; settings: 72 h
[13] = test system: IMC-1 (IL-2 20 ng/mL); assay: as above; settings: 72 h
[14] = test system: normal NK cells expanded with K562-aAPC; assay: percent inhibition of viability; higher = more inhibition; settings: 72 h, IL-2 2.5 ng/mL
Method: (§1)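 Drug sensitivity and resistance testing on K562-aAPC-expanded normal NK cells: 5 concentrations (10-fold steps over a 10,000-fold range), 72 h at 37 °C, viability by CellTiter-Glo normalised to DMSO and benzethonium chloride controls; DSS from the fitted curve.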

[15] = test system: normal NK cells expanded with K562-aAPC; assay: drug sensitivity score (DSS) (DSS units); higher = more sensitive; extreme values may be limits of the assay; settings: 72 h; IL-2 2.5 ng/mL
Method: as §1

[16] = test system: NK-92 (IL-2 2.5 ng/mL); assay: percent inhibition of viability; higher = more inhibition; settings: 72 h
[17] = test system: normal primary NK cells, pool 1 (3 donors), resting (IL-2 0 ng/mL); assay: as above; settings: 72 h
[18] = test system: KAI3 (IL-2 2.5 ng/mL); assay: as above; settings: 72 h
[19] = test system: normal primary NK cells, pool 2 (3 donors) (IL-2 2.5 ng/mL); assay: as above; settings: 72 h
[20] = test system: NKL (IL-2 2.5 ng/mL); assay: as above; settings: 72 h
[21] = test system: normal primary NK cells, pool 1 (3 donors) (IL-2 2.5 ng/mL); assay: as above; settings: 72 h
[22] = test system: DERL-7 (IL-2 2.5 ng/mL); assay: as above; settings: 72 h
[23] = test system: KHYG-1 (IL-2 2.5 ng/mL); assay: as above; settings: 72 h
[24] = test system: YT (IL-2 2.5 ng/mL); assay: as above; settings: 72 h
[25] = test system: normal primary NK cells, pool 3 (3 donors) (IL-2 2.5 ng/mL); assay: as above; settings: 72 h
[26] = test system: NK-YS (IL-2 2.5 ng/mL); assay: as above; settings: 72 h
[27] = test system: SNK-6 (IL-2 2.5 ng/mL); assay: as above; settings: 72 h
[28] = test system: IMC-1 (IL-2 20 ng/mL); assay: as above; settings: 72 h

CNC(=O)c1ccc2cc([C@@]3(O)CCn4cncc43)ccc2c1 [Orteronel] (max concentration tested 10000 nM)
Settings | drug sensitivity score
[1] | 0
[2] | 2.88
[3] | 0
[4] | 0
[5] | 0
[6] | 0
[7] | 0
[8] | 0
[9] | 0
[10] | 0
[11] | 0
[12] | 0
[13] | 0
[15] | 0

percent inhibition of viability [%]
Settings | 1 nM | 10 nM | 100 nM | 1000 nM | 10000 nM
[14] | -5.71 | -7.96 | -3.03 | -3.58 | -6.05
[16] | -11.2 | 0.34 | -4.73 | 4.66 | -21.7
[17] | -13 | -1.84 | 15.9 | 8.47 | 14.4
[18] | -7.13 | -0.59 | -2.47 | -4.32 | -11.3
[19] | -7.25 | -8.3 | -5.11 | -0.18 | -0.97
[20] | -5 | -13 | -12.1 | 0.4 | -4.85
[21] | -3.93 | -7.55 | -2.24 | 5.97 | 4.41
[22] | -6.34 | 0.71 | -1.69 | -1 | -1.19
[23] | -5.73 | -2.14 | -3.55 | 0.58 | -8.03
[24] | -1.09 | -0.82 | -3 | 6.56 | -4.8
[25] | -9.86 | -10.5 | -4.17 | -8.67 | -0.69
[26] | -3.4 | -3.35 | -1.88 | -0.21 | -5.45
[27] | 12.8 | 29.5 | -7.71 | 18.8 | -9.24
[28] | -2.16 | 2.99 | -1.56 | 2.85 | -4.82

NC(=S)N/N=C/c1ncccc1N [Triapine] (max concentration tested 10000 nM)
Settings | drug sensitivity score
[1] | 12.1
[2] | 8.2
[3] | 9.5
[4] | 3.34
[5] | 4.61
[6] | 3.86
[7] | 4.86
[8] | 13.8
[9] | 3.49
[10] | 4.03
[11] | 9.25
[12] | 4.48
[13] | 4.69
[15] | 10.1

percent inhibition of viability [%]
Settings | 1 nM | 10 nM | 100 nM | 1000 nM | 10000 nM
[14] | -2.67 | -8.24 | -2.71 | 55 | 64.6
[16] | -11.5 | -5.21 | -2.75 | 61.1 | 90.6
[17] | -6.48 | -20.7 | -16.6 | 22.7 | 85.8
[18] | -5.83 | 4.79 | 3.83 | 32.7 | 93.6
[19] | -9.87 | -3.04 | -3.45 | 8.38 | 40
[20] | -2.42 | -1.96 | -11.9 | -7.16 | 92.3
[21] | -6.36 | -11 | -8.82 | 4.76 | 57.7
[22] | -1.06 | 2.72 | -5.08 | -8.15 | 97.7
[23] | -1.53 | -0.9 | -1.65 | 73.7 | 97.9
[24] | 0.85 | 0.16 | -3.39 | -10 | 74.8
[25] | -6.53 | -8.38 | -5.12 | 15.8 | 38.7
[26] | -1.66 | -1.59 | -1.57 | 26.8 | 95.1
[27] | 4.11 | 13 | 14.7 | -6.98 | 89.7
[28] | -5.06 | 0.28 | -5.51 | -12.1 | 98

Cc1c(N)nc([C@H](CC(N)=O)NC[C@H](N)C(N)=O)nc1C(=O)N[C@H](C(=O)N[C@H](C)[C@@H](O)[C@H](C)C(=O)N[C@H](C(=O)NCCc1nc(-c2nc(C(=O)NCCC[S+](C)C)cs2)cs1)[C@@H](C)O)[C@@H](OC1OC(CO)C(O)C(O)C1OC1OC(CO)C(O)C(OC(N)=O)C1O)c1cnc[nH]1 (stereo not given in full) [Bleomycin] (max concentration tested 10000 nM)
Settings | drug sensitivity score
[1] | 13.2
[2] | 4.07
[3] | 11.2
[4] | 7.05
[5] | 10.6
[6] | 3.94
[7] | 8.38
[8] | 4.93
[9] | 4.81
[10] | 6.94
[11] | 11.1
[12] | 27.6
[13] | 5.31
[15] | 7.53

percent inhibition of viability [%]
Settings | 1 nM | 10 nM | 100 nM | 1000 nM | 10000 nM
[14] | 3.15 | -1.5 | 7.63 | 34.1 | 62.5
[16] | -18 | -20.7 | 13.2 | 60.3 | 99
[17] | -6.18 | -0.23 | -9.89 | -6.49 | 82
[18] | -4.06 | -8.69 | 8.99 | 52.9 | 77
[19] | -11.5 | -5.49 | -1.39 | 19.4 | 73.8
[20] | -14.6 | -9.35 | -1.37 | 39.7 | 96.6
[21] | -8.98 | 2.35 | -2.19 | 6.69 | 52.9
[22] | 0.04 | -2.28 | 1.21 | 29.5 | 78.2
[23] | -3.86 | -5.7 | -1.32 | 7.38 | 67.6
[24] | -2.74 | -1.16 | 1.84 | 13.3 | 51.6
[25] | -10.1 | -1.71 | 12.2 | 27.9 | 68.2
[26] | -1.93 | -5.64 | 6.84 | 52.8 | 81.4
[27] | 9.29 | 19.8 | 68.8 | 97 | 101
[28] | -0.57 | -6.19 | 5.49 | 17.2 | 56.8

Cn1c(CCCC(=O)O)nc2cc(N(CCCl)CCCl)ccc21 [Bendamustine] (max concentration tested 10000 nM)
Settings | drug sensitivity score
[1] | 0.59
[2] | 4.14
[3] | 1.09
[4] | 3.11
[5] | 8.66
[6] | 2.59
[7] | 0
[8] | 0.29
[9] | 0
[10] | 3.81
[11] | 4.15
[12] | 5.85
[13] | 1.24
[15] | 4.02

percent inhibition of viability [%]
Settings | 1 nM | 10 nM | 100 nM | 1000 nM | 10000 nM
[14] | 3.13 | 1.48 | -1.08 | 12.2 | 42.8
[16] | -10.3 | -2.08 | 7.9 | -10.7 | 24.9
[17] | -1.75 | 6.06 | -6.12 | -12.6 | 88.2
[18] | -0.41 | 1.91 | 1.35 | -4.7 | 30.8
[19] | -6.1 | -4.8 | 1.7 | 1.54 | 54.5
[20] | -5.33 | -10.8 | 5.76 | 27.8 | 88.6
[21] | -9.6 | -0.97 | -3.62 | -12.8 | 60.6
[22] | 2.35 | -0.75 | -0.87 | -0.14 | 8.22
[23] | -5.91 | 1.42 | 10.1 | 2.21 | 17.1
[24] | -6.57 | -3.19 | 7.12 | -0.08 | 0
[25] | -2.58 | 1.8 | 5.19 | 5.5 | 54.3
[26] | -10.9 | -2.18 | 8.61 | 4.45 | 63.6
[27] | -1.78 | -2.24 | 14.2 | 17.1 | 67
[28] | -5.16 | -3.14 | 0.53 | 1.92 | 25.3

c1ccc(Cn2c(-c3ccc(OC[C@H](C4CCNCC4)n4c(-c5ccccc5)nc5ccccc54)cc3)nc3ccccc32)cc1 [deltarasin] (max concentration tested 10000 nM)
Settings | drug sensitivity score
[1] | 8.37
[2] | 9.04
[3] | 8.58
[4] | 7.32
[5] | 7.72
[6] | 6.08
[7] | 8.12
[8] | 6.1
[9] | 6.49
[10] | 6.03
[11] | 6.93
[12] | 5.39
[13] | 5
[15] | 5.21

percent inhibition of viability [%]
Settings | 1 nM | 10 nM | 100 nM | 1000 nM | 10000 nM
[14] | -6.73 | -5.61 | -6.67 | -4.59 | 100
[16] | -6.78 | -14.8 | -7.87 | 17.8 | 98.7
[17] | -29 | -22.3 | -17.1 | 22.4 | 100
[18] | 1.58 | 6.95 | 3.87 | 19.1 | 99.1
[19] | 3.52 | -1.56 | -7.68 | 10.8 | 100
[20] | -1.26 | -0.19 | 0.54 | 13.1 | 100
[21] | -6.29 | -12.3 | -0.84 | 3.6 | 100
[22] | -6.29 | 6.05 | -2.6 | 15.6 | 100
[23] | -3.81 | -4.92 | -1.42 | 4.21 | 99.4
[24] | -7.64 | -4.86 | -5.15 | 6.64 | 99
[25] | -5.09 | -3.8 | -9.07 | 2.9 | 101
[26] | 1.38 | 0.11 | 0.9 | 9.01 | 99.1
[27] | -2.79 | 1.66 | -4.21 | -2.37 | 100
[28] | -1.41 | -1.69 | -5.88 | -8.23 | 100
